In patent US20230301302A1, “AGROCHEMICAL ADJUVANTS” (Croda International Plc, priority 2020, published 2023):

Experiments:
[1] = test system: Botrytis cinerea (ATCC 90479); assay: Adjuvancy: agar growth inhibition assay (colony diameter) with fungicide and/or adjuvant; type: cell-based; conditions: for inherent fungicidal activity: adjuvant on its own, any of the concentrations tested
Description: As a measure of the adjuvant activity in relation to the activity of the fungicide alone (e.g., pyraclostrobin) to B. cinerea a value of percent inhibition (adjuvant and fungicide) divided by percent inhibition (fungicide) can be defined, with higher values desired. A value of 1 would therefore represent equal activity of the adjuvant/fungicide combination to the fungicide alone, whereas a value above 1 would represent higher activity with the adjuvant/fungicide combination than the fungicide alone. The actives of the present invention may have a value greater than 1. Preferably greater than 1.5, most preferably greater than 2.
Percent Inhibition—The percent inhibition will be understood to represent the amount the fungicide and/or adjuvant that inhibits the visible growth of the microorganism after 48 hours incubation at 22° C. relative to vehicle treated controls. This is calculated using the following formula:
where: • ØC=diameter of the colony grown on agar supplemented with vehicle (i.e. vehicle treated control), and • ØT=diameter of the colony grown on agar supplemented with fungicide and/or adjuvant formulated in an appropriate vehicle (i.e. solvent such as water C2H5OH, CH3OH, CH3CN, DMSO).
Fold Change—The fold change is a measure of the adjuvant/fungicide combination in inhibiting a microorganism compared to the fungicide alone. This indicates how the adjuvant performs relative to the fungicide alone. This is calculated using the following formula:
where: • INHAF=percent inhibition of fungal growth when treated with fungicide and adjuvant, and • INHF=percent inhibition of fungal growth when treated with fungicide alone.
Botrytis cinerea (ATCC 90479) was cultured on Difco Potato Dextrose Agar (PDA) for 7 days with diurnal UV cycles (12 h UV light and 12 h dark). Spores were harvested in a buffered, sterile saline solution (w/v: 0.9% NaCl with 1% Tween 80) and counted using a haemocytometer. The spore suspension was adjusted to a final concentration of 8.5×10^6 spores/mL to create a standardised inoculum.
To prepare hyphal fragments for adjuvant testing, 8.5×10^4 spores were used to inoculate 10 mL of Difco Potato Dextrose Broth in a 150×25 mm tube. The tube was incubated at 220 RPM, 22° C. for 48 hours. To create hyphal fragments from the culture, the culture was transferred to a 50 mL plastic conical tube containing approximately 20 sterile 5 mm diameter glass beads and vortexed for 5 min. After vortexing the tube was allowed to stand for 5 min to allow large mycelial clumps to settle and then the top layer containing hyphal fragments was removed and used as inocula for growth inhibition assays.
Fungicides and adjuvants were dissolved in methanol and added to molten PDA (˜50° C.) and then the agar was distributed in the wells of 12 well multiwell plates (1 mL/well). The plates were cooled to room temperature and 10 μL of hyphal inoculum was added to the centre of each well. The plates were incubated at 22° C. for 48 hours and then the colony diameter was measured using a digital caliper. The biological growth control consisted of hyphae and vehicle (0.07% methanol), the negative control was media and vehicle (0.07% methanol).
The effect of the adjuvants on fungicidal activity is represented as fold increase in growth inhibition. A value of 1 indicates no increase in fungicidal activity. A value less than 1 indicates reduced fungicidal activity and a value greater than 1 indicates increased fungicidal activity.

[2] = test system: African green monkey Vero kidney cells (ATCC CCL-81); assay: Cytotoxicity, alamarBlue cell viability; type: cell-based; conditions: highest concentration tested (128 μg/mL); 24 hours
Procedure: The cytotoxicity of the diketopiperazines was assessed in vitro against African green monkey Vero kidney cells (ATCC CCL-81). Cells were cultured in 15 mL of Eagle's minimal essential medium (Sigma) supplemented with 10% (v/v) fetal bovine serum (VWR), […] penicillin and 0.1 mg/mL streptomycin in T75 cm^2 cell culture flasks. Cells were incubated for 24 hours at 37° C. in a humidified atmosphere of 5% CO2. Culture medium was refreshed every 2-3 days and cells were not allowed to exceed 80% confluency. At 80% confluency the cells were counted, diluted and plated into 96 well flat bottom cell culture plates (Corning) at a cell density of 10,000 cells per well in 90 μL of growth medium. The plates were incubated at 37° C. in a humidified atmosphere of 5% CO2 for 24 hours to allow cells to adhere to the plate before treatment. After 24 hours, adjuvants were solubilised in DMSO, serially diluted and added to the wells at final concentrations ranging from 1 μg/mL to 128 μg/mL. DMSO was used as the vehicle at a final concentration of 1% in the wells. The plates were incubated at 37° C. in a humidified atmosphere of 5% CO2 for 24 hours after which alamarBlue (Invitrogen) was added to each well at 10% of the culture volume. Fluorescence was monitored using a Thermo Scientific Varioskan Flash plate reader at 560/12 excitation, 590 nm emission both at time zero and 4 hrs after alamarBlue addition. After subtracting the time zero emission 590 nm measurement from the final reading, the inferred percentage of cell viability relative to the vehicle control wells was calculated.

[3] = test system: butterhead lettuce leaves; assay: Phytotoxicity on leaves, necrosis score; type: in vivo; conditions: scale 0 (no necrosis) to 3 (extended necrosis)
Procedure: (§1) Phytotoxicity of the diketopiperazines was assessed on soybean and butterhead lettuce leaves. Soybean seeds were inoculated with Bradyrhizobium japnicum and sown in Levington's M3 compost in 9 cm^2 plastic pots. Soybean plants were given supplementary lighting with SON-T bulbs. Biological control was used to prevent thrip damage (Biolone—Amblyseius cucumeris). The glasshouse temperatures were set to maintain 22° C.±2 during the day and 19° C.±2 at night. Lettuce plants were grown in the same manner without rhizobacteria inoculation. Supplementary lighting was provided by LED bulbs. All plants were maintained as well watered and grown for fourteen days. Test compounds/extracts were resuspended in 2% DMSO ([…]). Synperonic Al1 LQ was used a positive control and UEP-100 as a negative control. Treatments were applied as six 10 μL droplets on the leaf's surface. Phytotoxic tissue damage was assessed 1- and 7-days post-treatment and on a scale of 0 to 3. The phytotoxic effect of the compounds/extract at 1 g/L is represented as a mean phytotoxic necrosis score, where 0=no necrosis; 1=slight spot-like necrosis of the inoculation site; 2=ring-shaped necrosis; 3=extended necrosis.

soybean leaves = assay: Phytotoxicity on leaves, necrosis score; type: in vivo; conditions: Soy, 1 g/L, scale 0 (no necrosis) to 3 (extended necrosis)
Procedure: as §1

[4] = Pyra 0.0156 μg/mL, adjuvant 128 μg/mL, vs pyraclostrobin alone, 48 h, 22° C.
[5] = Pyra 0.0313 μg/mL, adjuvant 128 μg/mL, vs pyraclostrobin alone, 48 h, 22° C.
[6] = Pyra 0.0625 μg/mL, adjuvant 128 μg/mL, vs pyraclostrobin alone, 48 h, 22° C.

| SMILES | inherent fungicidal activity [1] | cytotoxicity against Vero cells [2] | Fold Change in Growth Inhibition [1, 4] | Fold Change in Growth Inhibition [1, 5] | Fold Change in Growth Inhibition [1, 6] | Fold Change in Growth Inhibition ([1]; Teb 0.095 μg/mL, adjuvant 25 μg/mL, vs tebuconazole alone) | Fold Change in Growth Inhibition ([1]; Teb 0.095 μg/mL, adjuvant 50 μg/mL, vs tebuconazole alone) | Fold Change in Growth Inhibition ([1]; Teb 0.095 μg/mL, adjuvant 100 μg/mL, vs tebuconazole alone) | Fold Change in Growth Inhibition ([1]; Teb 0.19 μg/mL, adjuvant 25 μg/mL, vs tebuconazole alone) | Fold Change in Growth Inhibition ([1]; Teb 0.19 μg/mL, adjuvant 50 μg/mL, vs tebuconazole alone) | Fold Change in Growth Inhibition ([1]; Teb 0.19 μg/mL, adjuvant 100 μg/mL, vs tebuconazole alone) | Mean Score (phytotoxic necrosis) ([3]; Day 1, 1 g/L) | Mean Score (phytotoxic necrosis) ([3]; Day 7, 1 g/L) | Mean Score (phytotoxic necrosis) ([3]; Day 7, 1 g/L, listed as DKP (1a)) | Mean Score (phytotoxic necrosis) (soybean leaves; Day 1) | Mean Score (phytotoxic necrosis) (soybean leaves; Day 7) | Mean Score (phytotoxic necrosis) (soybean leaves; Day 7, listed as DKP (1a)) |
| --- | --- | --- | --- | --- | --- | --- | --- | --- | --- | --- | --- | --- | --- | --- | --- | --- | --- |
| O=C1N/C(=C/c2ccccc2)C(=O)N2CCC[C@@H]12 [DKP (Id)] | did not demonstrate any inherent fungicidal activity | did not exhibit any cytotoxicity | – | – | – | – | – | – | – | – | – | – | – | – | – | – | – |
| CN1C(=O)[C@@H]2CCCN2C(=O)/C1=C\c1ccccc1 [DKP (Ib)] | did not demonstrate any inherent fungicidal activity | did not exhibit any cytotoxicity | – | – | – | – | – | – | – | – | – | – | – | – | – | – | – |
| CN1C(=O)[C@@H]2CCCN2C(=O)/C1=C/c1ccccc1 [DKP (Ia)] | did not demonstrate any inherent fungicidal activity | did not exhibit any cytotoxicity | 2.18 | 3.31 | 1.87 | 1.97 | 1.78 | 2.00 | 4.39 | 1.78 | 2.76 | 0 | did not exhibit any phytotoxicity | 0 | 0 | did not exhibit any phytotoxicity | 0 |
| O=C1N/C(=C\c2ccccc2)C(=O)N2CCC[C@@H]12 [DKP (Ic)] | did not demonstrate any inherent fungicidal activity | did not exhibit any cytotoxicity | 1.52 | 3.14 | 1.48 | – | – | – | – | – | – | – | – | – | – | – | – |
